{"source": "paper PMC12505664", "about": "“Enflicoxib for the long-term management of canine osteoarthritis—External validation of a population pharmacokinetic model in dogs with osteoarthritis” (Frontiers in Veterinary Science, 2025)", "key": {"[1]": {"design": "method as in PMID 34854245", "details": "popPK model, cited from earlier work"}, "[2]": {"assay": "Plasma levels of enflicoxib and pyrazol metabolite in the 6-month field clinical study (HPLC-MS/MS)", "format": "in vivo, client-owned dogs with OA", "details": "for Mean plasma level: oral 8 mg/kg then 4 mg/kg weekly", "description": "A prospective, multisite, blinded, randomized, placebo-controlled, parallel-group field study was performed in accordance with Good Clinical Practice standards ([16]). The study aimed to confirm the safety and efficacy of enflicoxib treatment of pain and inflammation associated with naturally occurring canine OA in dogs of any breed and sex treated for 6 months. The protocol was approved by the regulatory authorities of both Portugal and Hungary. Written informed consent was obtained from all dog owners prior to enrolment of their dogs. Dogs remained under the care of their owners at home throughout the study.\nBefore enrolment, all dogs underwent a physical examination, and blood and urine samples were taken. After enrollment, dogs were randomized in a predefined enflicoxib:placebo ratio of 3:1. Enflicoxib was dosed orally at weekly intervals, with an initial dose of 8 mg/kg, followed by once-a-week maintenance doses of 4 mg/kg for a total of 26 weeks. Dogs in the enflicoxib group received Daxocox® tablets (Ecuphar/Animalcare group), while dogs in the placebo group received the same formulation without the active ingredient under the same posology (number of tablets and dosing interval). […] No positive control was included due to difficulties in maintaining blinding with products under different posology during the entire follow-up period.\nTwo blood samples for popPK analysis were collected from all animals enrolled in the study one on day 44(±2 days)/1.5 months, (similar to the last sample taken in the previous clinical studies), after clinical assessment of pain and lameness and prior to treatment administration and another one at the end of the study on day 189/6 months (±2 days), or individual premature study termination day. Day 189 corresponds to the trough concentration after the 27th weekly administration (PK sample taken at the end of the weekly dosing interval). Meanwhile, day 44 corresponds to a PK sample obtained 2 days after the 7th weekly administration. The veterinary practices had the necessary resources and adequate freezing equipment for the long-term storage of plasma samples. Blood samples were collected into potassium-3-ethylenediaminetetraacetic acid (K3EDTA) labeled tubes, which were immediately centrifuged at ~2,500g for 10 min (at +4 °C whenever possible) to obtain plasma. Once received, plasma was transferred into two labeled propylene tubes (aliquots 1 and 2). Each plasma aliquot was stored frozen at a nominal temperature of −20 (±2) °C until shipment to the Laboratory of analysis Welab Barcelona (Parc Científic de Barcelona, C/Baldiri Reixac 4-12, 08028, Barcelona). The maximum storage time for the samples was 376 days at nominally −20 °C/−80 °C. Considering the long-term stability of enflicoxib and its metabolite in dog plasma samples stored at −20 °C, which spans a minimum of 402 days, the stability of the study samples was guaranteed for the entire duration of the study. Samples were analyzed without information on the treatment allocation (laboratory-blinded study).\nEnflicoxib and pyrazol metabolite plasma levels were measured by a previously fully validated high-performance liquid chromatography (HPLC)-method coupled with tandem mass spectrometry (MS/MS) detection as described in Homedes et al. ([4])."}, "[3]": {"design": "method as in PMID 34160092", "details": "Beagle dogs, oral enflicoxib; cited from earlier work"}, "[4]": {"assay": "Maximum a posteriori Bayesian (MAPB) estimation of individual PK parameters in dogs with OA", "format": "in vivo", "source_text": "As a similar PK behavior between populations was concluded, the same popPK model could be used, and a Bayesian approach was used for the determination of individual enflicoxib and the pyrazol metabolite exposure in osteoarthritic animals.\nA maximum a posteriori Bayesian (MAPB) estimation using the post hoc subroutine in NONMEM was used to provide the individual PK parameters in osteoarthritic dogs.\nMAPB estimation applied likelihood maximization in the form of minimizing the objective function (minus 2 log likelihood), to estimate individual PK parameters of each dog with OA. In this analysis, the MAPB estimation incorporated both a priori PK information, that is, the established PK model of enflicoxib and the pyrazol metabolite in healthy Beagle dogs, and a posteriori PK data, which corresponds to PK data from osteoarthritic dogs. The individual PK parameters along with individual predicted PK profiles for each dog treated with enflicoxib were calculated by fitting the animal PK dataset, which includes dosing, sampling times, parent and metabolite levels, and covariate information, to the established population enflicoxib and the pyrazol metabolite PK model in healthy Beagle dogs.\nThe maximum a posteriori Bayesian (MAPB) estimation was applied to provide the most likely individual PK profile for each dog with OA, using the “POSTHOC” subroutine and $ESTIMATION command set to MAXEVAL=0 in NONMEM.\nIndividual PK parameters and individual PK profiles of enflicoxib and the pyrazol metabolite were estimated for each dog.\nFinally, the Bayesian approach enabled the estimation of the main individual PK parameters of enflicoxib and the pyrazol metabolite. Using these individual PK parameters, predicted profiles for each animal were estimated, allowing the calculation of the derived exposure parameters, such as Cmax, Cmin, AUCτ, and T1/2 in all treated dogs. The distribution and the mean estimates of enflicoxib and the pyrazol metabolite PK parameters at selected time points are depicted in Supplementary Figures S3, S4, respectively."}, "[5]": {"details": "overdose study, repeated weekly administrations, Beagle dogs; cited from earlier work"}, "[6]": {"design": "method as in PMID 34160092", "details": "previously validated method, cited from earlier work"}, "canine osteoarthritis": {"test_system": "canine osteoarthritis", "design": "method as in Salichs et al., Vet Rec. 2022", "details": "Mavacoxib group n=58, ref Salichs et al., Vet Rec. 2022, cited from earlier work"}, "[7]": {"details": "metabolite, typical value at 9.9 kg"}, "[8]": {"details": "weeks 12–26, Bayesian predicted profiles"}}, "note": "Read-outs that look alike come from different tables or passages of the source.", "data": [{"compound": "NS(=O)(=O)c1ccc(-n2nc(C(F)(F)F)cc2-c2ccc(F)cc2F)cc1", "note": "[Pyrazol metabolite]", "values": [{"measurement": "IIV of CLM/F (apparent clearance)", "setting": "[1]; interindividual variability as % CV", "value": 31, "unit": "%"}, {"measurement": "Residual variability", "setting": "[1]; log error model, % CV", "value": 20, "unit": "%"}, {"measurement": "CLM/F = θ7·(WGT/9.9)^0.75, θ7 estimate (apparent clearance)", "setting": "[1]; [7]", "value": 0.111, "unit": "L/h"}, {"measurement": "VM/F = θ4·(WGT/9.9)^1.0, θ4 estimate (apparent volume of distribution, central compartment)", "setting": "[1]; [7]", "value": 6.59, "unit": "L"}, {"measurement": "Mean plasma level", "setting": "[2]; day 44 (2 days after 7th weekly administration), N=75", "value": "2,105.6 ng/mL"}, {"measurement": "Max plasma level", "setting": "[2]; day 44, N=75", "value": "4,728.5 ng/mL"}, {"measurement": "Min plasma level", "setting": "[2]; day 44, N=75", "value": 2.5, "unit": "ng/mL"}, {"measurement": "Probability (%) concentration < 10 ng/mL", "setting": "[2]; day 44, N=75", "value": 4.0, "unit": "%"}, {"measurement": "Probability (%) concentration < LOQ", "setting": "[2]; day 44, N=75", "value": 4.0, "unit": "%"}, {"measurement": "Probability (%) concentration < 10 ng/mL", "setting": "[2]; day 44, N=75, listed as pyrazol metabolite", "value": 4, "unit": "%"}, {"measurement": "Mean plasma level", "setting": "[2]; day 93 (premature study termination), N=2", "value": "3,928.8 ng/mL"}, {"measurement": "Max plasma level", "setting": "[2]; day 93, N=2", "value": "5,029.0 ng/mL"}, {"measurement": "Min plasma level", "setting": "[2]; day 93, N=2", "value": "2,828.5 ng/mL"}, {"measurement": "Probability (%) concentration < 10 ng/mL", "setting": "[2]; day 93, N=2", "value": 0.0, "unit": "%"}, {"measurement": "Probability (%) concentration < LOQ", "setting": "[2]; day 93, N=2", "value": 0.0, "unit": "%"}, {"measurement": "Mean plasma level", "setting": "[2]; day 189 (trough after 27th weekly administration), N=65", "value": "2,317.4 ng/mL"}, {"measurement": "Max plasma level", "setting": "[2]; day 189, N=65", "value": "7,541.8 ng/mL"}, {"measurement": "Min plasma level", "setting": "[2]; day 189, N=65", "value": 2.5, "unit": "ng/mL"}, {"measurement": "Probability (%) concentration < 10 ng/mL", "setting": "[2]; day 189, N=65", "value": 4.6, "unit": "%"}, {"measurement": "Probability (%) concentration < LOQ", "setting": "[2]; day 189, N=65", "value": 1.5, "unit": "%"}, {"measurement": "Probability (%) concentration < 10 ng/mL", "setting": "[2]; day 189, N=65, listed as pyrazol metabolite", "value": 5, "unit": "%"}, {"measurement": "mean terminal elimination half-life (t 1/2)", "setting": "[3]", "value": 17, "unit": "days"}, {"measurement": "Time-dependent pharmacokinetics or over-accumulation", "setting": "[4]; 6 months of weekly treatment", "value": "no evidence of time-dependent pharmacokinetics or over-accumulation"}, {"measurement": "Time to PK steady-state", "setting": "[4]; weekly treatment", "value": "10–12 weeks"}, {"measurement": "AUCτ", "setting": "[4]; [8]", "value": "16,742 ng/ml·day"}, {"measurement": "Cmax", "setting": "[4]; [8]", "value": "~ 2,490 ng/mL"}, {"measurement": "Cmin", "setting": "[4]; [8]", "value": "2,243 ng/mL"}, {"measurement": "Dose proportionality of pharmacokinetics", "setting": "[5]", "value": "dose-proportional pharmacokinetics"}, {"measurement": "Stability in dog plasma", "setting": "[6]; following 4 freeze–thaw cycles", "value": "stable"}, {"measurement": "Stability in dog plasma", "setting": "[6]; nominally −20 °C for 402 days", "value": "stable"}, {"measurement": "Stability in dog plasma", "setting": "[6]; room temperature for 4 h", "value": "stable"}, {"measurement": "Long-term stability in dog plasma samples", "setting": "[6]; stored at −20 °C", "value": "≥ 402", "unit": "days"}]}, {"compound": "NS(=O)(=O)c1ccc(-n2nc(C(F)(F)F)cc2-c2ccc(F)cc2)cc1", "note": "[Mavacoxib]", "values": [{"measurement": "Number of animals presenting AEs (%): Emesis or nausea", "setting": "canine osteoarthritis; AEs classified A, B or O", "value": "4 (6.9)"}, {"measurement": "Emesis and nausea: Number of events", "setting": "canine osteoarthritis; AEs related to the GI system", "value": 6}, {"measurement": "Diarrhoea / pasty stools: Duration range", "setting": "canine osteoarthritis", "value": "1 to 4", "unit": "days"}, {"measurement": "Diarrhoea / pasty stools: Mean duration", "setting": "canine osteoarthritis", "value": 2, "unit": "days"}, {"measurement": "Diarrhoea / pasty stools: Number of events", "setting": "canine osteoarthritis", "value": 3}, {"measurement": "Diarrhoea / pasty stools: Treatment needed", "setting": "canine osteoarthritis", "value": 0}, {"measurement": "Emesis and nausea: Mean duration", "setting": "canine osteoarthritis", "value": 4.2, "unit": "days"}, {"measurement": "Emesis and nausea: Treatment needed", "setting": "canine osteoarthritis", "value": 2}, {"measurement": "Number of animals presenting AEs (%): Abdominal pain", "setting": "canine osteoarthritis", "value": 0}, {"measurement": "Number of animals presenting AEs (%): Acute renal failure", "setting": "canine osteoarthritis", "value": "1 (1.7)"}, {"measurement": "Number of animals presenting AEs (%): Apathy", "setting": "canine osteoarthritis", "value": 0}, {"measurement": "Number of animals presenting AEs (%): Constipation", "setting": "canine osteoarthritis", "value": "1 (1.7)"}, {"measurement": "Number of animals presenting AEs (%): Diarrhoea or pasty stools", "setting": "canine osteoarthritis", "value": "3 (5.2)"}, {"measurement": "Number of animals presenting AEs (%): Increased salivation", "setting": "canine osteoarthritis", "value": 0}, {"measurement": "Number of animals presenting AEs (%): Polydipsia", "setting": "canine osteoarthritis", "value": 0}, {"measurement": "Number of animals presenting AEs (%): Total", "setting": "canine osteoarthritis", "value": "6 (10.3)"}, {"measurement": "Number of animals presenting AEs (%): Weight loss", "setting": "canine osteoarthritis", "value": 0}, {"measurement": "Emesis and nausea: Duration range", "setting": "canine osteoarthritis; upper end one animal", "value": "1 to 14", "unit": "days"}]}]}
